Results as given in patent publication US8273774B2, “Phenoxypyridinylamide compounds” (AstraZeneca AB, priority 2008, dated 2012).

Target: recombinant Human Phosphodiesterase B2 (PDE4B2) (Homo sapiens, UniProt Q07343)
Experiment: Human Phosphodiesterase B2 Radiometric Assay
Assay type: biochemical
Details: 0.1 μg/mL recombinant PDE4B2; preincubated at 30 C for 30 min; [3H]cyclic AMP 8 nM, stopped after 20 min; yttrium silicate SPA beads; read-out: PDE4B2 pIC50 (converted)
Method in brief: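 Compounds preincubated 30 min at 30 C with 0.1 μg/mL recombinant PDE4B2 in 50 mM HEPES pH 7.5, 8.3 mM MgCl2, 1.7 mM EGTA, 0.01% Brij 35.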

Chain of recombinant Human Phosphodiesterase B2 (PDE4B2) (Q07343 1-564 isoform Q07343-2): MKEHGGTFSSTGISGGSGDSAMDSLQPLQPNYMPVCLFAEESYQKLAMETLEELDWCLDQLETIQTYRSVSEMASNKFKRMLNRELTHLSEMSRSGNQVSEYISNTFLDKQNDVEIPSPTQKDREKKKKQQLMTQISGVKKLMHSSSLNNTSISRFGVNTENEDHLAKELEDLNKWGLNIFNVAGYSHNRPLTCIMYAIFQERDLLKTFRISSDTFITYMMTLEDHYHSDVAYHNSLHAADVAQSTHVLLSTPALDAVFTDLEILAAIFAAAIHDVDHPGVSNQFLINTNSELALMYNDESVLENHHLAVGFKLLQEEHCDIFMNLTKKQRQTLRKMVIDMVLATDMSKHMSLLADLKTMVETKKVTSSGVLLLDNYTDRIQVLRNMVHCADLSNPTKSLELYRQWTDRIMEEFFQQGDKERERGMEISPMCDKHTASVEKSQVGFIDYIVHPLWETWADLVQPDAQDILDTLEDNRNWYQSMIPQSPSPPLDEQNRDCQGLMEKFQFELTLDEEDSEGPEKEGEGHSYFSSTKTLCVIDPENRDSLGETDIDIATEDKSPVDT

| Compound | IC50 |
| --- | --- |
| Cc1cc(C)n2ncc(C(=O)N[C@H]3CC[C@@H](NC(=O)c4cc(F)cnc4Oc4cccc(-c5ccc(CN6CCN(CC(=O)NC(C)C)CC6)cc5CN5CCOCC5)c4)CC3)c2n1 [Example 178, N-((1s,4s)-4-(5-Fluoro-2-(4′-((4-(2-(isopropylamino)-2-oxoethyl)piperazin-1-yl)methyl)-2′-(morpholinomethyl)biphenyl-3-yloxy)nicotinamido)cyclohexyl)-5,7-dimethylpyrazolo[1,5-a]pyrimidine-3-carboxamide] | 0.0398 nM |
| Cc1cc(C)n2nc(C(=O)N[C@H]3CC[C@@H](NC(=O)c4cc(F)cnc4Oc4cccc(-c5ccc(CN6CCCN(CCO)CC6)cc5CN5CCOC[C@@H]5C)c4)CC3)cc2n1 [Example 179, N-((1s,4s)-4-(5-Fluoro-2-(4′-((4-(2-hydroxyethyl)-1,4-diazepan-1-yl)methyl)-2′-(((S)-3-methylmorpholino)methyl)biphenyl-3-yloxy)nicotinamido)cyclohexyl)-5,7-dimethylpyrazolo[1,5-a]pyrimidine-2-carboxamide] | 0.0501 nM |
| C[C@H]1COCCN1Cc1cc(CN2CCCN(CCO)CC2)ccc1-c1cccc(Oc2ncc(F)cc2C(=O)N[C@H]2CC[C@@H](NC(=O)c3cccc4[nH]cnc34)CC2)c1 [Example 180, N-((1s,4s)-4-(5-Fluoro-2-(4′-((4-(2-hydroxyethyl)-1,4-diazepan-1-yl)methyl)-2′-(((S)-3-methylmorpholino)methyl)biphenyl-3-yloxy)nicotinamido)cyclohexyl)-1H-benzo[d]imidazole-4-carboxamide] | 0.0158 nM |
| CCCN1CCN(Cc2ccc(-c3cccc(Oc4ncc(F)cc4C(=O)N[C@H]4CC[C@@H](NC(=O)c5cc(C)n(C)n5)CC4)c3)c(CN3CCOCC3)c2)CC1 [Example 181, N-((1s,4s)-4-(1,5-Dimethyl-1H-pyrazole-3-carboxamido)cyclohexyl)-5-fluoro-2-(2′-(morpholinomethyl)-4′-((4-propylpiperazin-1-yl)methyl)biphenyl-3-yloxy)nicotinamide] | 0.251 nM |
| Cc1cc(C)n2ncc(C(=O)N[C@H]3CC[C@@H](NC(=O)c4cc(F)cnc4Oc4cccc(-c5ccc(CN6CCCN(CCO)CC6)cc5CN5CCSCC5)c4)CC3)c2n1 [Example 182, N-((1s,4s)-4-(5-Fluoro-2-(4′-((4(2-hydroxyethyl)-1,4-diazepan-1-yl)methyl)-2′-(thiomorpholinomethyl)biphenyl-3-yloxy)nicotinamido)cyclohexyl)-5,7-dimethylpyrazolo[1,5-a]pyrimidine-3-carboxamide] | 0.0398 nM |
| Cc1cc(C(=O)N[C@H]2CC[C@@H](NC(=O)c3cc(F)cnc3Oc3cccc(-c4ccc(CN5CCN(C(C)C)CC5)cc4CN4CCOCC4)c3)CC2)nn1C [Example 183, N-((1s,4s)-4-(1,5-Dimethyl-1H-pyrazole-3-carboxamido)cyclohexyl)-5-fluoro-2-(4′-((4-isopropylpiperazin-1-yl)methyl)-2′-(morpholinomethyl)biphenyl-3-yloxy)nicotinamide] | 0.2 nM |
| Cc1csc(C(=O)N[C@H]2CC[C@@H](NC(=O)c3cc(F)cnc3Oc3cccc(-c4ccc(CCN5CCNCC5)cc4)c3)CC2)n1 [Example 184, N-((1s,4s)-4-(5-Fluoro-2-(4′-(2-(piperazin-1-yl)ethyl)biphenyl-3-yloxy)nicotinamido)cyclohexyl)-4-methylthiazole-2-carboxamide] | 0.0398 nM |
| Cc1cccc2nc(C(=O)N[C@H]3CC[C@@H](NC(=O)c4cc(F)cnc4Oc4cccc(-c5ccc(CN6CCCN(C)CC6)cc5CN5CCOCC5)c4)CC3)cn12 [Example 185, N-((1s,4s)-4-(5-Fluoro-2-(4′-((4-methyl-1,4-diazepan-1-yl)methyl)-2′-(morpholinomethyl)biphenyl-3-yloxy)nicotinamido)cyclohexyl)-5-methylimidazo[1,2-a]pyridine-2-carboxamide] | 0.02 nM |
| O=C(N[C@H]1CC[C@@H](NC(=O)c2cc(F)cnc2Oc2cccc(-c3ccc(CCN4CCNCC4)cc3)c2)CC1)c1cnc2ccccc2n1 [Example 186, N-((1s,4s)-4-(5-Fluoro-2-(4′-(2-(piperazin-1-yl)ethyl)biphenyl-3-yloxy)nicotinamido)cyclohexyl)quinoxaline-2-carboxamide] | 0.0398 nM |
| O=C(NC1CCC(NC(=O)c2cc(F)cnc2Oc2cccc(-c3ccc(CCCN4CCNCC4)cc3)c2)CC1)c1nc(CO)cs1 (stereo not drawn) [Example 187, N-((1s,4s)-4-(5-Fluoro-2-(4′-(3-(piperazin-1-yl)propyl)biphenyl-3-yloxy)nicotinamido)cyclohexyl)-4-(hydroxymethyl)thiazole-2-carboxamide] | 0.2 nM |
| C[C@@H]1CN(Cc2ccc(-c3cccc(Oc4ncc(F)cc4C(=O)N[C@H]4CC[C@@H](NC(=O)c5cc6n(n5)CCCC6)CC4)c3)c(CN3CCSCC3)c2)C[C@H](C)N1 [Example 188, N-((1s,4s)-4-(2-(4′-(((3S,5R)-3,5-dimethylpiperazin-1-yl)methyl)-2′-(thiomorpholinomethyl)biphenyl-3-yloxy)-5-fluoronicotinamido)cyclohexyl)-4,5,6,7-tetrahydropyrazolo[1,5-a]pyridine-2-carboxamide] | 0.02 nM |
| Cc1nc(C(=O)N[C@H]2CC[C@@H](NC(=O)c3cc(F)cnc3Oc3cccc(-c4ccc(CN5C[C@@H](C)N[C@@H](C)C5)cc4CN4CCSCC4)c3)CC2)cs1 [Example 189, N-((1s,4s)-4-(2-(4′-(((3S,5R)-3,5-dimethylpiperazin-1-yl)methyl)-2′-(thiomorpholinomethyl)biphenyl-3-yloxy)-5-fluoronicotinamido)cyclohexyl)-2-methylthiazole-4-carboxamide] | 0.0158 nM |
| CC(C)c1nc(C(=O)N[C@H]2CC[C@@H](NC(=O)c3cc(F)cnc3Oc3cccc(-c4ccc(CN5C[C@@H](C)N[C@@H](C)C5)cc4CN4CCOCC4)c3)CC2)cs1 [Example 190, N-((1s,4s)-4-(2-(4′-(((3S,5R)-3,5-dimethylpiperazin-1-yl)methyl)-2′-(morpholinomethyl)biphenyl-3-yloxy)-5-fluoronicotinamido)cyclohexyl)-2-isopropylthiazole-4-carboxamide] | 0.0398 nM |
| C[C@@H]1CN(Cc2ccc(-c3cccc(Oc4ncc(F)cc4C(=O)N[C@H]4CC[C@@H](NC(=O)c5cc(C(F)(F)F)n(C)n5)CC4)c3)c(CN3CCSCC3)c2)C[C@H](C)N1 [Example 191, 2-(4′-(((3S,5R)-3,5-dimethylpiperazin-1-yl)methyl)-2′-(thiomorpholinomethyl)biphenyl-3-yloxy)-5-fluoro-N-((1s,4s)-4-(1-methyl-5-(trifluoromethyl)-1H-pyrazole-3-carboxamido)cyclo-hexyl)nicotinamide] | 0.02 nM |
| Cc1csc(C(=O)N[C@H]2CC[C@@H](NC(=O)c3cc(F)cnc3Oc3cccc(-c4ccc(CN5C[C@@H](C)N[C@@H](C)C5)cc4CN4CCSCC4)c3)CC2)n1 [Example 192, N-((1s,4s)-4-(2-(4′-(((3S,5R)-3,5-dimethylpiperazin-1-yl)methyl)-2′-(thiomorpholinomethyl)biphenyl-3-yloxy)-5-fluoronicotinamido)cyclohexyl)-4-methylthiazole-2-carboxamide] | 0.02 nM |
| Cc1cc(C)n2ncc(C(=O)N[C@H]3CC[C@@H](NC(=O)c4cc(F)cnc4Oc4cccc(-c5ccc(CN6C[C@@H](C)N[C@@H](C)C6)cc5CN5CCSCC5)c4)CC3)c2n1 [Example 193, N-((1s,4s)-4-(2-(4′-(((3S,5R)-3,5-dimethylpiperazin-1-yl)methyl)-2′-(thiomorpholinomethyl)biphenyl-3-yloxy)-5-fluoronicotinamido)cyclohexyl)-5,7-dimethylpyrazolo[1,5-a]pyrimidine-3-carboxamide] | 0.0251 nM |
| Cc1csc(C(=O)N[C@H]2CC[C@@H](NC(=O)c3cc(F)cnc3Oc3cccc(-c4ccc(CN5C[C@@H](C)N[C@@H](C)C5)cc4CN4CCOC[C@@H]4C)c3)CC2)n1 [Example 194, N-((1s,4s)-4-(2-(4′-(((3S,5R)-3,5-dimethylpiperazin-1-yl)methyl)-2′-(((S)-3-methylmorpholino)methyl)biphenyl-3-yloxy)-5-fluoronicotinamido)cyclohexyl)-4-methylthiazole-2-carboxamide] | 0.0316 nM |
| C[C@@H]1CN(Cc2ccc(-c3cccc(Oc4ncc(F)cc4C(=O)N[C@H]4CC[C@@H](NC(=O)c5cccc6[nH]cnc56)CC4)c3)c(CN3CCOC[C@@H]3C)c2)C[C@H](C)N1 [Example 195, N-((1s,4s)-4-(2-(4′-(((3S,5R)-3,5-dimethylpiperazin-1-yl)methyl)-2′-(((S)-3-methylmorpholino)methyl)biphenyl-3-yloxy)-5-fluoronicotmamido)cyclohexyl)-1H-benzo[d]imidazole-4-carboxamide] | 0.02 nM |
| Cc1cc(C)n2ncc(C(=O)N[C@H]3CC[C@@H](NC(=O)c4cc(F)cnc4Oc4cccc(-c5ccc(CN6C[C@@H](C)N[C@@H](C)C6)cc5CN5CCOC[C@@H]5C)c4)CC3)c2n1 [Example 196, N-((1s,4s)-4-(2-(4′-(((3S,5R)-3,5-dimethylpiperazin-1-yl)methyl)-2′-(((S)-3-methylmorpholino)methyl)biphenyl-3-yloxy)-5-fluoronicotinamido)cyclohexyl)-5,7-dimethylpyrazolo[1,5-a]pyrimidine-3-carboxamide] | 0.0251 nM |
| O=C(N[C@H]1CC[C@@H](NC(=O)c2cnn3cccnc23)CC1)c1cc(F)cnc1Oc1cccc(-c2ccc(CN3CCSCC3)cc2CN2CCOCC2)c1 [Example 197, N-((1s,4s)-4-(5-fluoro-2-(2′-(morpholinomethyl)-4′-(thiomorpholinomethyl)biphenyl-3-yloxy)nicotinamido)cyclohexyl)pyrazolo[1,5-a]pyrimidine-3-carboxamide] | 0.02 nM |
| Cc1csc(C(=O)N[C@H]2CC[C@@H](NC(=O)c3cc(F)cnc3Oc3cccc(-c4ccc(CN5CCN(CC(=O)NC(C)C)CC5)cc4CN4CCOCC4)c3)CC2)n1 [Example 198, N-((1s,4s)-4-(5-fluoro-2-(4′-((4-(2-(isopropylamino)-2-oxoethyl)piperazin-1-yl)methyl)-2′-(morpholinomethyl)biphenyl-3-yloxy)nicotinamido)cyclohexyl)-4-methylthiazole-2-carboxamide] | 0.0251 nM |
